The compounds below were run on VCaP cells (assay: Cytotoxicity assessment (Cell-titer-glo cell viability), VCaP). Conditions: read-out: VCaP (CC50); VCaP cells, 6 days of treatment, Cell-titer-glo, vs DMSO.

SMILES	CC50 [µM]
CC1(C)C(NC(=O)c2cnc(N3CCN(CC4CCN(C(=O)C5CN(c6ccc7nnn(C8CCC(=O)NC8=O)c(=O)c7c6)C5)CC4)CC3)nc2)C(C)(C)C1Oc1ccc(C#N)c(Cl)c1 (centres unmarked) [Example 146, N-((1r,3r)-3-(3-chloro-4-cyanophenoxy)-2,2,4,4-tetramethylcyclobutyl)-2-(4-((1-(1-(3-(2,6-dioxopiperidin-3-yl)-4-oxo-3,4-dihydrobenzo[d][1,2,3]triazin-6-yl)azetidine-3-carbonyl)piperidin-4-yl)methyl)piperazin-1-yl)pyrimidine-5-carboxamide]	~0.01
CC1(C)C(NC(=O)c2ccc(C#CCC3CCN(C4CCN(c5ccc6nnn(C7CCC(=O)NC7=O)c(=O)c6c5)CC4)CC3)cc2)C(C)(C)C1Oc1ccc(C#N)c(Cl)c1 (centres unmarked) [Example 89, N-((1r,3r)-3-(3-chloro-4-cyanophenoxy)-2,2,4,4-tetramethylcyclobutyl)-4-(3-(1 ? (3-(2,6-dioxopiperidin-3-yl)-4-oxo-3,4-dihydrobenzo[d][1,2,3]triazin-6-yl)-[1,4 ? bipiperdin]-4-yl)prop-1-yn-1-yl)benzamide]	0.112
CC1(C)C(NC(=O)c2ccc(N3CC4CN(C(=O)COc5ccc6nnn(C7CCC(=O)NC7=O)c(=O)c6c5)CC4C3)cc2)C(C)(C)C1Oc1ccc(C#N)c(Cl)c1 (centres unmarked) [Example 135, N-((1r,3r)-3-(3-chloro-4-cyanophenoxy)-2,2,4,4-tetramethylcyclobutyl)-4-(5-(2-((3-(2,6-dioxopiperidin-3-yl)-4-oxo-3,4-dihydrobenzo[d][1,2,3]triazin-6-yl)oxy)acetyl)hexahydropyrrolo[3,4-c]pyrrol-2(1H)-yl)benzamide]	~0.01
CC1(C)[C@H](NC(=O)c2ccc(N3CC4CN(CC5CCN(C(=O)C6CN(c7ccc8nnn(C9CCC(=O)NC9=O)c(=O)c8c7)C6)CC5)CC4C3)cc2)C(C)(C)[C@H]1Oc1ccc(C#N)c(Cl)c1 (some centres unmarked) [Example 140, N-((1r,3r)-3-(3-chloro-4-cyanophenoxy)-2,2,4,4-tetramethylcyclobutyl)-4-(5-((1-(1-(3-(2,6-dioxopiperidin-3-yl)-4-oxo-3,4-dihydrobenzo[d][1,2,3]triazin-6-yl)azetidine-3-carbonyl)piperidin-4-yl)methyl)hexahydropyrrolo[3,4-c]pyrrol-2(1H)-yl)benzamide]	0.03
CC1(C)C(NC(=O)c2cnc(N3CCN(CC4CCN(C(=O)CNc5ccc6nnn(C7CCC(=O)NC7=O)c(=O)c6c5)CC4)CC3)nc2)C(C)(C)C1Oc1ccc(C#N)c(Cl)c1 (centres unmarked) [Example 147, N-((1r,3r)-3-(3-chloro-4-cyanophenoxy)-2,2,4,4-tetramethylcyclobutyl)-2-(4-((1-((3-(2,6-dioxopiperidin-3-yl)-4-oxo-3,4-dihydrobenzo[d][1,2,3]triazin-6-yl)glycyl)piperidin-4-yl)methyl)piperazin-1-yl)pyrimidine-5-carboxamide]	~0.01
CC1(C)C(NC(=O)c2ccc(C#CCC3CCN(CC4CCN(C(=O)C5CCN(c6ccc7nnn(C8CCC(=O)NC8=O)c(=O)c7c6)CC5)CC4)CC3)cc2)C(C)(C)C1Oc1ccc(C#N)c(Cl)c1 (centres unmarked) [Example 116, N-((1r,3r)-3-(3-chloro-4-cyanophenoxy)-2,2,4,4-tetramethylcyclobutyl)-4-(3-(1-((1-(1-(3-(2,6-dioxopiperidin-3-yl)-4-oxo-3,4-dihydrobenzo[d][1,2,3]triazin-6-yl)piperidine-4-carbonyl)piperidin-4-yl)methyl)piperidin-4-yl)prop-1-yn-1-yl)benzamide]	0.0161
CC1(C)[C@H](NC(=O)c2ccc(CCN3CC4CN(c5ccc6nnn(C7CCC(=O)NC7=O)c(=O)c6c5)CC4C3)cc2)C(C)(C)[C@H]1Oc1ccc(C#N)c(Cl)c1 (some centres unmarked) [Example 92, N-((1r,3r)-3-(3-chloro-4-cyanophenoxy)-2,2,4,4-tetramethylcyclobutyl)-4-(2-(5-(3-(2,6-dioxopiperidin-3-yl)-4-oxo-3,4-dihydrobenzo[d][1,2,3]triazin-6-yl)hexahydropyrrolo[3,4-c]pyrrol-2(1H)-yl)ethyl)benzamide]	> 10
CC1(C)C(NC(=O)c2ccc(C#CC3CCN(CC4CCN(C(=O)COc5ccc6nnn(C7CCC(=O)NC7=O)c(=O)c6c5)CC4)CC3)nc2)C(C)(C)C1Oc1ccc(C#N)c(Cl)c1 (centres unmarked) [Example 133, N-((1r,3r)-3-(3-chloro-4-cyanophenoxy)-2,2,4,4-tetramethylcyclobutyl)-6-((1-((1-(2-((3-(2,6-dioxopiperidin-3-yl)-4-oxo-3,4-dihydrobenzo[d][1,2,3]triazin-6-yl)oxy)acetyl)piperidin-4-yl)methyl)piperidin-4-yl)ethynyl)nicotinamide]	0.015
CC1(C)C(NC(=O)c2ccc(-n3cc(CCNC(=O)C4CCN(c5ccc6nnn(C7CCC(=O)NC7=O)c(=O)c6c5)CC4)nn3)cc2)C(C)(C)C1Oc1ccc(C#N)c(Cl)c1 (centres unmarked) [Example 154, N-(2-(1-(4-(((1r,3r)-3-(3-chloro-4-cyanophenoxy)-2,2,4,4-tetramethylcyclobutyl)carbamoyl)phenyl)-1H-1,2,3-triazol-4-yl)ethyl)-1-(3-(2,6-dioxopiperidin-3-yl)-4-oxo-3,4-dihydrobenzo[d][1,2,3]triazin-6-yl)piperidine-4-carboxamide]	0.0416
CC1(C)C(NC(=O)c2ccc(C#CC3CCN(CC4CCN(C(=O)C5CN(c6ccc7nnn(C8CCC(=O)NC8=O)c(=O)c7c6)C5)CC4)CC3)cc2)C(C)(C)C1Oc1ccc(C#N)c(Cl)c1 (centres unmarked) [Example 96, N-((1r,3r)-3-(3-chloro-4-cyanophenoxy)-2,2,4,4-tetramethylcyclobutyl)-4-((1-((1-(1-(3-(2,6-dioxopiperidin-3-yl)-4-oxo-3,4-dihydrobenzo[d][1,2,3]triazin-6-yl)azetidine-3-carbonyl)piperidin-4-yl)methyl)piperidin-4-yl)ethynyl)benzamide]	0.00803
CC1(C)C(NC(=O)c2ccc(C#CC3CCN(CC4CCN(C(=O)CNc5ccc6nnn(C7CCC(=O)NC7=O)c(=O)c6c5)CC4)CC3)nc2)C(C)(C)C1Oc1ccc(C#N)c(Cl)c1 (centres unmarked) [Example 132, N-((1r,3r)-3-(3-chloro-4-cyanophenoxy)-2,2,4,4-tetramethylcyclobutyl)-6-((1-((1-((3-(2,6-dioxopiperidin-3-yl)-4-oxo-3,4-dihydrobenzo[d][1,2,3]triazin-6-yl)glycyl)piperidin-4-yl)methyl)piperidin-4-yl)ethynyl)nicotinamide]	0.015
CC1(C)C(NC(=O)c2ccc(-n3cc(CN4CCN(c5ccc6nnn(C7CCC(=O)NC7=O)c(=O)c6c5)CC4)nn3)cc2)C(C)(C)C1Oc1ccc(C#N)c(Cl)c1 (centres unmarked) [Example 120, N-((1r,3r)-3-(3-chloro-4-cyanophenoxy)-2,2,4,4-tetramethylcyclobutyl)-4-(4-((4-(3-(2,6-dioxopiperidin-3-yl)-4-oxo-3,4-dihydrobenzo[d][1,2,3]triazin-6-yl)piperazin-1-yl)methyl)-1H-1,2,3-triazol-1-yl)benzamide]	0.0297
CC1(C)[C@H](NC(=O)c2ccc(N3CCN(CC4CCN(CCNC(=O)C5CN(c6ccc7nnn(C8CCC(=O)NC8=O)c(=O)c7c6)C5)CC4)CC3)cc2)C(C)(C)[C@H]1Oc1ccc(C#N)c(Cl)c1 (some centres unmarked) [Example 69, N-(2-(4-((4-(4-(((1r,3r)-3-(3-chloro-4-cyanophenoxy)-2,2,4,4-tetramethylcyclobutyl)carbamoyl)phenyl)piperazin-1-yl)methyl)piperidin-1-yl)ethyl)-1-(3-(2,6-dioxopiperidin-3-yl)-4-oxo-3,4-dihydrobenzo[d][1,2,3]triazin-6-yl)azetidine-3-carboxamide]	0.345
CC1(C)C(NC(=O)c2ccc(-c3cnn(C4CCN(CC5CCN(C(=O)C6CN(c7ccc8nnn(C9CCC(=O)NC9=O)c(=O)c8c7)C6)CC5)CC4)c3)nc2)C(C)(C)C1Oc1ccc(C#N)c(Cl)c1 (centres unmarked) [Example 114, N-((1r,3r)-3-(3-chloro-4-cyanophenoxy)-2,2,4,4-tetramethylcyclobutyl)-6-(1-(1-((1-(1-(3-(2,6-dioxopiperidin-3-yl)-4-oxo-3,4-dihydrobenzo[d][1,2,3]triazin-6-yl)azetidine-3-carbonyl)piperidin-4-yl)methyl)piperidin-4-yl)-1H-pyrazol-4-yl)nicotinamide]	0.014
CC1(C)C(NC(=O)c2ccc(C#CC3CCN(CC4CCN(C(=O)C5CCN(c6ccc7nnn(C8CCC(=O)NC8=O)c(=O)c7c6)CC5)CC4)CC3)nc2)C(C)(C)C1Oc1ccc(C#N)c(Cl)c1 (centres unmarked) [Example 130, N-((1r,3r)-3-(3-chloro-4-cyanophenoxy)-2,2,4,4-tetramethylcyclobutyl)-6-((1-((1-(1-(3-(2,6-dioxopiperidin-3-yl)-4-oxo-3,4-dihydrobenzo[d][1,2,3]triazin-6-yl)piperidine-4-carbonyl)piperidin-4-yl)methyl)piperidin-4-yl)ethynyl)nicotinamide]	0.017
CC1(C)C(NC(=O)c2ccc(-c3cnn(C4CCN(CC5CCN(C(=O)CNc6ccc7nnn(C8CCC(=O)NC8=O)c(=O)c7c6)CC5)CC4)c3)cc2)C(C)(C)C1Oc1ccc(C#N)c(Cl)c1 (centres unmarked) [Example 112, N-((1r,3r)-3-(3-chloro-4-cyanophenoxy)-2,2,4,4-tetramethylcyclobutyl)-4-(1-(1-((1-((3-(2,6-dioxopiperidin-3-yl)-4-oxo-3,4-dihydrobenzo[d][1,2,3]triazin-6-yl)glycyl)piperidin-4-yl)methyl)piperidin-4-yl)-1H-pyrazol-4-yl)benzamide]	0.016
CC1(C)C(NC(=O)c2ccc(-n3cc(CCOCCOCCNC(=O)C4CN(c5ccc6nnn(C7CCC(=O)NC7=O)c(=O)c6c5)C4)nn3)cc2)C(C)(C)C1Oc1ccc(C#N)c(Cl)c1 (centres unmarked) [Example 157, N-(2-(2-(2-(1-(4-(((1r,3r)-3-(3-chloro-4-cyanophenoxy)-2,2,4,4-tetramethylcyclobutyl)carbamoyl)phenyl)-1H-1,2,3-triazol-4-yl)ethoxy)ethoxy)ethyl)-1-(3-(2,6-dioxopiperidin-3-yl)-4-oxo-3,4-dihydrobenzo[d][1,2,3]triazin-6-yl)azetidine-3-carboxamide]	0.0321

— patent US20240018123A1, “COMPOUND FOR INHIBITING OR DISINTEGRATING ANDROGEN RECEPTOR, AND PHARMACEUTICAL USE THEREOF” (KOREA RESEARCH INSTITUTE OF CHEMICAL TECHNOLOGY, priority 2020, published 2024)
